Measured values: paper PMC3038607 (Journal of the American Chemical Society, 2011)

Molecular target: T1, dimethylarginine dimethylaminohydrolase (DDAH) (Pseudomonas aeruginosa, UniProt Q9I4E3)
T1 sequence (Q9I4E3 1-254): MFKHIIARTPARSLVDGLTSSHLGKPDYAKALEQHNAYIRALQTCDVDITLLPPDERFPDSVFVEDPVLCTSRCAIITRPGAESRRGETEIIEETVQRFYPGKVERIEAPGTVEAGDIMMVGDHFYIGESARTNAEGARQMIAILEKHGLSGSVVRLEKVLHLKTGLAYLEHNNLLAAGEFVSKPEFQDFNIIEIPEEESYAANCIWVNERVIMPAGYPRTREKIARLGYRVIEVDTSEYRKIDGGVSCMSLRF
Test: time-dependent inactivation kinetics
Assay type: biochemical
Conditions: read-out: Ki

## Cc1cc(Br)ccn1 [compound 1, 4-bromo-2-methylpyridine]
  KI (inactivation): 2600 ± 800 µM
